Measured values reported in patent US4999344A, “Phosphatidyl treatment of rapidly proliferating cells” (priority 1988, dated 1991).

Legend:
[1] = system: N4TG1 neuroblastoma cells; test: Thymidine uptake (cell viability) by N4TG1 neuroblastoma cells incubated with liposomes; type: cell-based, mouse
Description: Plant PI(S) is from the Sigma Chemical Company and plant PI(A) is from Avanti Polar Lipids, Inc. and ([^14 C]linoleoyl)PI is the synthetic PI.
FIGS. 3a and 3b show the effect of increasing the molar fraction of synthetic PI or animal PI in liposomes on (a) thymidine uptake (FIG. 3a) and myo-inositol uptake (FIG. 3b) by N4TG1 neuroblastoma cells, .circle. 100 μm PI, 200 μm PI, 300 μm PI. Cells were incubated with liposomes made up of the various combinations indicated (mol %) of ([^14 C]linoleoyl)PI and animal PI.
FIGS. 9a, b, c, and d show the effect of inhibitors on PI toxicity to tumor cells.
(§1) Lipids were dried and resuspended exactly as described previously in the Biochem. Biophys. Res. Commun. article. In the use of ([^14 C]linoleoyl)PI, ([^14 C]oleoyl)PI, or ([^14 C]arachidonoyl)PI the phospholipids were used in a 2:1 molar combination with cholesterol. Cholesterol was included in the liposomes in order to minimize the net transfer of cholesterol into or out of the cells. ([^3 H]myo-Inositol)PI was used as a tracer (1%) with bovine liver PI as the bulk phospholipid carrier for forming liposomes. [^3 H]Linoleic acid was used as a tracer (4%) in liposomes containing linoleic acid:PI (yeast or animal): cholesterol, 2:1. It was shown that it is not necessary to have cholesterol present to observe the cytotoxicity.
The N4TG1 mouse neuroblastoma cell line was obtained from Dr. Peter Chiang (Walter Reed Army Institute of Research) and cultured using Dulbecco's minimal essential medium (MEM: Grand Island Biological Co.) containing 10% fetal bovine serum. Cells were routinely started from frozen cultures every 6 weeks in order to assure that the cells used were from low passage cultures.
[methyl-^3 H]Thymidine (New England Nuclear) incorporation was carried out using 96-well plates (Costar). Thymidine incorporation was used as an assay for cell viability, since in the previous studies described in the Biochem. Biophys. Res. Commun. (1983) article, other methods of assessing cell viability, including microscopic evaluation in the presence of trypan blue, gave identical results. Fifty μl of cell suspension (4×10^5 cells/ml) were added to duplicate wells. Approximately 18 hours later 25 μl of the PI-containing liposomes were added to give a final concentration of phospholipid of 200 μM (approximately, 14 nmol/2-3×10^4 cells). At various intervals after PI addition [^3 H]thymidine, 1 μCi/well was added and incubated with the cells for 3 hours. Cells were collected on glass fiber filter mats by a mechanical cell harvester (Skatron, Inc.) using a combination of scraping and fluid turbulence (saline). Filters were dried and the material was solubilized by incubation overnight with NCS tissue solubilizer and counted in the presence of Spectrafluor (Amersham).
In FIGS. 1 and 2 the curves were quite reproducible and representative experiments are shown. Because of fluctuations (<5%) in control values, the data were "normalized" by comparison with daily controls and expressed as "percentage of control in absence of PI." Typical values for uptake of [^3 H]thymidine by controls are shown in the inserts in FIGS. 1 and 2.

[2] = system: N4TG1 neuroblastoma cells; test: Fate of liposomal PI after incubation with N4TG1 neuroblastoma cells; type: in vitro ADME, mouse
Description: as §1, with “It was shown that it is not necessary to have cholesterol present to observe the cytotoxicity.” left out
In order to extract lipids, methanol and chloroform were added to cell homogenates to obtain a single phase of CHCl3 :CH3 OH:H2 O (1:2:1 8, v/v) containing 0.1M HCl, according to Bligh and Dyer in Can. […] The lipid compositions of the cell extracts were determined by thin layer chromatography on silica gel precoated sheets (E. M. Reagents; E. Merck, FRG) using the following solvent systems: (a) chloroform:methanol: acetic acid:water, 25:15:4:2 (v/v) (used for phospholipid separation): (b) 1-propanol:4.3M ammonia containing 10 mM EDTA, 65:35 (v/v) (used for PIP and PIP2 separations); and (c) chloroform:acetone, 1:1 (v/v) (used for DG and fatty acid separations). […]

MRC-5 = test: Liposomal uptake by normal and tumor cells; type: cell-based; details: normal cells MRC-5
Description: (§2) Thymidine uptake is a method of assessing cell viability of cultured cells, and decreased thymidine uptake occurs as a result of cytotoxicity caused by contact with toxic substances. , MRC-5 normal embryonic lung fibroblasts; , W1-38SV/40 transformed embryonic human lung fibroblasts; .quadrature..quadrature., SK-N-MC human glioblastoma cells and , N4TG1 mouse neuroblastoma cells.
(§3) Cells were treated with liposomes containing synthetic preparations of PI (left frames) or PC (right frames) containing palmitic acid in the sn-1 position and either [^14 C]linoleic acid in the sn-2 position (FIGS. 5 and 5a) or [^14 C]arachidonic acid in the sn-2 position (FIGS. 6 and 6a) or [^14 C]oleic acid in the sn-2 position (FIGS. 7 and 7a). The liposomes were comprised of the indicated phospholipids (PI or PC) and cholesterol in a molar ratio of 2:1.
(§4) The data in Table 5 was obtained concomitantly with the toxicity studies in FIGS. 5-7a.

SK-N-MC = test: Liposomal uptake by normal and tumor cells; type: cell-based, human; details: tumor cells SK-N-MC
Description: as §2, §3, §4

WI-38/SV-40 = test: Liposomal uptake by normal and tumor cells; type: cell-based, human
Description: as §2, §3, §4

N4TG1 = test: Liposomal uptake by normal and tumor cells; type: cell-based, mouse; details: tumor cells N4TG1
Description: as §2, §3, §4

HT-144 = test: Liposomal uptake by normal and tumor cells; type: cell-based, human; details: tumor cells HT-144
Description: as §3, §4

[3] = system: N4TG1 neuroblastoma cells; test: Effect on cells by linoleic acid in liposomes made of non-cytotoxic phospholipids (thymidine uptake); type: cell-based, mouse
Description: as §1
The N4TG1 mouse neuroblastoma cell line was obtained from Dr. Peter Chiang (Walter Reed Army Institute of Research) and cultured using Dulbecco's minimal essential medium (MEM: Grand Island Biological Co.) containing 10% fetal bovine serum. […]
[methyl-^3 H]Thymidine (New England Nuclear) incorporation was carried out using 96-well plates (Costar). […] Filters were dried and the material was solubilized by incubation overnight with NCS tissue solubilizer and counted in the presence of Spectrafluor (Amersham). […]
Cellular uptake of linoleic acid was calculated based on uptake of tracer ^3 H-linoleic acid. […]

[4] = system: N4TG1 neuroblastoma cells; test: Cellular uptake of linoleic acid from liposomes (tracer 3H-linoleic acid); type: cell-based, mouse
Description: as §1
Cellular uptake of linoleic acid was calculated based on uptake of tracer ^3 H-linoleic acid. In Table 1 intracellularly generated free fatty acids occurred at a concentration of 2.2 nmol/8×10^5 cells. […] In the case of liposomes containing yeast PI as the phospholipid, the uptake of linoleic acid was 2.9 nmol/8×10^5 cells and the thymidine incorporation had decreased to 53% of control values. Although toxicity occurred at similar concentrations of fatty acids as were generated intracellularly it must be kept in mind that in the experiment in Table 2 there were also extracellular free fatty acids which could exert effects on the outer surface of the cells.

[5] = system: lung small cell carcinoma cultures (NCI-H128); test: Toxicity to lung small cell carcinoma cultures, based on thymidine uptake, with inhibitors; parameters: species or system human; details: FIGS. 9c and 9d; for blocking of plant PI toxicity / competition: with plant PI
Description: FIGS. 9c and 9d show the effects of inhibitors of phospholipase A2 (quinacrine) or prostaglandin synthesis (eicosanotetraynoic acid) or leukotriene synthesis ([…]) on cytotoxicity induced by liposomes containing plant PI/cholesterol/([^14 C]linoleoyl)PI (2/1/0.01). The NCI-H128 cells are a small cell lung carcinoma cultured cell line
Several specific inhibitors were used with lung small cell carcinoma cultures. […] In humans, this type of lung cancer is fatal very soon after detection.

Compound | cytotoxicity [1] | Liposomal uptake (MRC-5) | Liposomal uptake (SK-N-MC) | Liposomal uptake (WI-38/SV-40) | Liposomal uptake (N4TG1) | Liposomal uptake (HT-144) | blocking of plant PI toxicity / competition [5] | also measured
CCCCC/C=C\C/C=C\C/C=C\C/C=C\CCC[14C](=O)O[C@H](COC(=O)CCCCCCCCCCCCCCCCC)COP(=O)(O)O[C@@H]1[C@H](O)[C@H](O)[C@@H](O)[C@H](O)[C@H]1O [([^14 C]arachidonoyl)PI] | considerable cytotoxicity | 0.09 nMoles of phospholipid/1 × 10^5 cells | 0.39 nMoles of phospholipid/1 × 10^5 cells | 0.33 nMoles of phospholipid/1 × 10^5 cells | 0.49 nMoles of phospholipid/1 × 10^5 cells | 0.55 nMoles of phospholipid/1 × 10^5 cells | – | Phosphatidylcholine [2]: Not Detected
CCCCCCCC/C=C\CCCCCCC[14C](=O)O[C@H](COC(=O)CCCCCCCCCCCCCCCCC)COP(=O)(O)O[C@@H]1[C@H](O)[C@H](O)[C@@H](O)[C@H](O)[C@H]1O [([^14 C]oleoyl)PI, reference compound] | lacked cytotoxicity | 0.13 nMoles of phospholipid/1 × 10^5 cells | 0.28 nMoles of phospholipid/1 × 10^5 cells | 0.21 nMoles of phospholipid/1 × 10^5 cells | 0.28 nMoles of phospholipid/1 × 10^5 cells | 0.28 nMoles of phospholipid/1 × 10^5 cells | – | –
CCCCC/C=C\C/C=C\CCCCCCCC(=O)O [Linoleic acid, linoleic acid] | – | – | – | – | – | – | – | decrease in thymidine incorporation compared with controls ([3]; liposomes with animal PI, uptake 2.55 nmol/8×10^5 cells): 63%; thymidine incorporation ([3]; liposomes with yeast PI, uptake 2.9 nmol/8×10^5 cells): 53 % of control values; uptake of linoleic acid ([4]; 50 μM, Animal Phosphatidylinositol liposomes): 2.55 nmol/8 × 10^5 cells; uptake of linoleic acid ([4]; 50 μM, Yeast Phosphatidylinositol liposomes): 1.8 nmol/8 × 10^5 cells; uptake of linoleic acid ([4]; 100 μM, Animal Phosphatidylinositol liposomes): 3.03 nmol/8 × 10^5 cells; uptake of linoleic acid ([4]; 100 μM, Yeast Phosphatidylinositol liposomes): 2.9 nmol/8 × 10^5 cells; uptake of linoleic acid ([4]; 200 μM, Animal Phosphatidylinositol liposomes): 10.4 nmol/8 × 10^5 cells; uptake of linoleic acid ([4]; 200 μM, Yeast Phosphatidylinositol liposomes): 14.8 nmol/8 × 10^5 cells
CCN(CC)CCCC(C)Nc1c2ccc(Cl)cc2nc2ccc(OC)cc12 (stereo not drawn) [Quinacrine, quinacrine, reference compound] | – | – | – | – | – | – | No competition was observed | effect of quinacrine on cytotoxicity of plant PI ([1]; in conjunction with plant PI, FIG. 9b): reversal of cytotoxicity; cytotoxicity of quinacrine alone ([1]; tumor or normal cells, FIG. 9a): somewhat cytotoxic; toxicity [5]: extremely toxic
CCCCCC#CCC#CCC#CCC#CCCCC(=O)O [eicosanotetraynoic acid] | – | – | – | – | – | – | relatively little promise of blocking the toxicity of plant PI | –
COc1ccc2c(c1)c(CC(=O)O)c(C)n2C(=O)c1ccc(Cl)cc1 [indomethecin, indomethacin] | – | – | – | – | – | – | relatively little promise of blocking the toxicity of plant PI | –
